# How the values were obtained:
# [1] = Pharmacokinetic assay of the salt forms in rats (10 mg/kg); assay type: in vivo; settings: SD rats
# [2] = Solid stability experiment (high temperature, high humidity, high temperature and high humidity); assay type: physicochemical
# Experimental: 4.1.1 Experimental objective: To investigate the physical and chemical stability of the crystal form of the compound under the conditions of high temperature, high humidity, as well as high temperature and high humidity, so as to provide a basis for crystal form screening and storage of the crystal form of the compound.
# The content of the salt was determined by HPLC using the external standard method, and the change of relevant substances was calculated by using the chromatographic peak area normalization method.
# [3] = Solubility experiment in different media; assay type: physicochemical; settings: for solubility at 24 h: thermodynamic from solid
# Experimental: The vials were placed on a spin mixer overnight at room temperature. After 24 hours, the sample solution was filtered through a 0.45 μm mixed aqueous fiber membrane. The content of the compound in the filtrate was determined by HPLC. [table]
# [4] = Thermodynamic stability experiment (polymorphism screening of the methanesulfonate); assay type: physicochemical; settings: pulped in solvents at 35° C. for 24 hours, XRPD
# Experimental: 6.1 Polymorphism screening of the methanesulfonate of compound 2-(2-cyano-5-oxo-8-(trifluoromethyl)pyrazolo[1,5-a]pyrido[3,2-e]pyrimidin-4(5H)-yl)-N-(5-fluoropyridin-2-yl)acetamide
# The mixture was magnetically pulped in a metal bath at 35° C. for 24 hours, and centrifuged. The resulting solid was dried, and the XRPD thereof was determined.
# [5] = Hygroscopicity experiment (DVS); assay type: physicochemical
# Outline: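 Crystalline salt forms equilibrated with water vapour at a range of relative humidities (DVS). Percentage weight gain at equilibrium recorded.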
# [6] = High humidity (92.5% RH), Day 7
# [7] = High humidity (92.5% RH), Day 14
# [8] = High temperature (60° C.), Day 7
# [9] = High temperature (60° C.), Day 14
# [10] = High temperature and high humidity (50° C.&75% RH), Day 7
# [11] = High temperature and high humidity (50° C.&75% RH), Day 14
# [12] = Cycle 1, target relative humidity 0.0%, 25° C.
# [13] = Cycle 1, target relative humidity 10.0%, 25° C.
# [14] = Cycle 1, target relative humidity 20.0%, 25° C.
# [15] = Cycle 1, target relative humidity 30.0%, 25° C.
# [16] = Cycle 1, target relative humidity 40.0%, 25° C.
# [17] = Cycle 1, target relative humidity 50.0%, 25° C.
# [18] = Cycle 1, target relative humidity 60.0%, 25° C.
# [19] = Cycle 1, target relative humidity 70.0%, 25° C.
# [20] = Cycle 1, target relative humidity 80.0%, 25° C.
# [21] = Cycle 1, target relative humidity 90.0%, 25° C.
# [22] = Cycle 1, target relative humidity 95.0%, 25° C.
# [23] = Cycle 2, target relative humidity 0.0%, 25° C.
# [24] = Cycle 2, target relative humidity 10.0%, 25° C.
# [25] = Cycle 2, target relative humidity 20.0%, 25° C.
# [26] = Cycle 2, target relative humidity 30.0%, 25° C.
# [27] = Cycle 2, target relative humidity 40.0%, 25° C.
# [28] = Cycle 2, target relative humidity 50.0%, 25° C.
# [29] = Cycle 2, target relative humidity 60.0%, 25° C.
# [30] = Cycle 2, target relative humidity 70.0%, 25° C.
# [31] = Cycle 2, target relative humidity 80.0%, 25° C.
# [32] = Cycle 2, target relative humidity 90.0%, 25° C.
# [33] = Cycle 2, target relative humidity 95.0%, 25° C.
structure (smiles),measurement,setting,value
"CS(=O)(=O)O.N#Cc1cc2n(CC(=O)Nc3ccc(F)cn3)c(=O)c3ccc(C(F)(F)F)nc3n2n1 [Methanesulfonate (crystal form A), 2-(2-cyano-5-oxo-8-(trifluoromethyl)pyrazolo[1,5-a]pyrido[3,2-e]pyrimidin-4(5H)-yl)-N-(5-fluoropyridin-2-yl)acetamide methanesulfonate]",exposure AUC and maximum plasma concentration Cmax compared with the free base,[1]; 10 mg/kg,superior
same,AUC(0-t),"[1]; male, rat, po, p.o. 10 mg/kg, plasma, vehicle 0.5% HPMC, read-out: Area under curve AUC0-t",25800 ng·h/mL
same,MRT inf,"[1]; male, rat, po, p.o. 10 mg/kg, plasma, vehicle 0.5% HPMC, read-out: Average residence time MRT0-∞",4.8 h
same,half-life,"[1]; male, rat, po, p.o. 10 mg/kg, plasma, vehicle 0.5% HPMC, read-out: Half life t1/2 (converted)",162 min
same,Tmax,"[1]; male, rat, po, p.o. 10 mg/kg, plasma, vehicle 0.5% HPMC, read-out: Peak time tmax",4 h
same,Cmax,"[1]; male, rat, po, p.o. 10 mg/kg, plasma, vehicle 0.5% HPMC, read-out: Plasma concentration Cmax",3320 ng/mL
same,solid stability under high temperature and high humidity,"[2]; 50° C.&75% RH, 7 and 14 days",stable
same,solid stability under high temperature,"[2]; 60° C., 7 and 14 days",stable
same,solid stability under high humidity,"[2]; 92.5% RH, 7 and 14 days",stable
same,% increase of total impurities,[2]; [6],<0.1%
same,% maximum increase of single impurity,[2]; [6],<0.1%
same,% increase of total impurities,[2]; [7],<0.1%
same,% maximum increase of single impurity,[2]; [7],<0.1%
same,% increase of total impurities,[2]; [8],<0.2%
same,% maximum increase of single impurity,[2]; [8],<0.1%
same,% increase of total impurities,[2]; [9],<0.1%
same,% maximum increase of single impurity,[2]; [9],<0.1%
same,% increase of total impurities,[2]; [10],<0.1%
same,% maximum increase of single impurity,[2]; [10],<0.1%
same,% increase of total impurities,[2]; [11],<0.1%
same,% maximum increase of single impurity,[2]; [11],<0.1%
same,solubility at 24 h,"[3]; aqueous buffer, USP Buffer pH 3, room temperature",4.3 µg/mL
same,solubility at 24 h,"[3]; aqueous buffer, USP Buffer pH 4, room temperature",3.6 µg/mL
same,solubility at 24 h,"[3]; aqueous buffer, USP Buffer pH 5, room temperature",3 µg/mL
same,solubility at 24 h,"[3]; aqueous buffer, USP Buffer pH 6, room temperature",2.4 µg/mL
same,solubility at 24 h,"[3]; aqueous buffer, USP Buffer pH 7, room temperature",2.2 µg/mL
same,solubility at 24 h,"[3]; aqueous buffer, USP Buffer pH 8, room temperature",1.8 µg/mL
same,solubility at 24 h,"[3]; fassgf or other biorelevant, FaSSGF, room temperature",3.3 µg/mL
same,solubility at 24 h,"[3]; pure water, water, H2O, room temperature",1.9 µg/mL
same,solubility in the corresponding media compared with crystal form II of the free base,"[3]; room temperature, 24 hours, buffers, FaSSGF, FaSSIF, FeSSIF, water",increased by more than four times
same,solubility at 24 h,"[3]; simulated gastric fluid, USP Buffer pH 1, room temperature",2.3 µg/mL
same,solubility at 24 h,"[3]; simulated gastric fluid, USP Buffer pH 2, room temperature",2.3 µg/mL
same,solubility at 24 h,"[3]; FaSSIF, room temperature",7.8 µg/mL
same,solubility at 24 h,"[3]; FeSSIF, room temperature",11.3 µg/mL
same,thermodynamic stability of the crystal form,[4],thermodynamically stable crystal form
same,hygroscopicity (Chinese Pharmacopoeia description),"[5]; 25° C., relative humidity 80%",slightly hygroscopic
same,hygroscopic weight gain,[5]; 80% relative humidity,≤ 0.5%
same,"% percentage of mass change, Desorption",[5]; [12],−0.029%
same,"% percentage of mass change, Sorption",[5]; [12],0.000%
same,"% percentage of mass change, Desorption",[5]; [13],0.030%
same,"% percentage of mass change, Sorption",[5]; [13],0.051%
same,"% percentage of mass change, Desorption",[5]; [14],0.082%
same,"% percentage of mass change, Sorption",[5]; [14],0.096%
same,"% percentage of mass change, Desorption",[5]; [15],0.133%
same,"% percentage of mass change, Sorption",[5]; [15],0.138%
same,"% percentage of mass change, Desorption",[5]; [16],0.190%
same,"% percentage of mass change, Sorption",[5]; [16],0.179%
same,"% percentage of mass change, Desorption",[5]; [17],0.253%
same,"% percentage of mass change, Sorption",[5]; [17],0.222%
same,"% percentage of mass change, Desorption",[5]; [18],0.320%
same,"% percentage of mass change, Sorption",[5]; [18],0.272%
same,"% percentage of mass change, Desorption",[5]; [19],0.395%
same,"% percentage of mass change, Sorption",[5]; [19],0.340%
same,"% percentage of mass change, Desorption",[5]; [20],0.502%
same,"% percentage of mass change, Sorption",[5]; [20],0.446%
same,"% percentage of mass change, Desorption",[5]; [21],0.760%
same,"% percentage of mass change, Sorption",[5]; [21],0.700%
same,"% percentage of mass change, Desorption",[5]; [22],1.109%
same,"% percentage of mass change, Sorption",[5]; [22],1.109%
same,"% percentage of mass change, Desorption",[5]; [23],−0.046%
same,"% percentage of mass change, Sorption",[5]; [23],−0.029%
same,"% percentage of mass change, Desorption",[5]; [24],0.014%
same,"% percentage of mass change, Sorption",[5]; [24],0.024%
same,"% percentage of mass change, Desorption",[5]; [25],0.067%
same,"% percentage of mass change, Sorption",[5]; [25],0.073%
same,"% percentage of mass change, Desorption",[5]; [26],0.118%
same,"% percentage of mass change, Sorption",[5]; [26],0.118%
same,"% percentage of mass change, Desorption",[5]; [27],0.177%
same,"% percentage of mass change, Sorption",[5]; [27],0.162%
same,"% percentage of mass change, Desorption",[5]; [28],0.241%
same,"% percentage of mass change, Sorption",[5]; [28],0.209%
same,"% percentage of mass change, Desorption",[5]; [29],0.305%
same,"% percentage of mass change, Sorption",[5]; [29],0.263%
same,"% percentage of mass change, Desorption",[5]; [30],0.378%
same,"% percentage of mass change, Sorption",[5]; [30],0.331%
same,"% percentage of mass change, Desorption",[5]; [31],0.480%
same,"% percentage of mass change, Sorption",[5]; [31],0.433%
same,"% percentage of mass change, Desorption",[5]; [32],0.734%
same,"% percentage of mass change, Sorption",[5]; [32],0.675%
same,"% percentage of mass change, Desorption",[5]; [33],1.076%
same,"% percentage of mass change, Sorption",[5]; [33],1.076%

# From US20240376108A1, “SALT AND CRYSTAL FORM OF PYRAZOLE-CONTAINING POLYCYCLIC DERIVATIVE, AND PREPARATION METHOD THEREFOR AND USE THEREOF” (Shanghai Hansoh Biomedical Co., Ltd., priority 2021, published 2024)
